According to publication PMC6982876, “Synthesis of Novel Benzodifuranyl; 1,3,5-Triazines; 1,3,5-Oxadiazepines; and Thiazolopyrimidines Derived from Visnaginone and Khellinone as Anti-Inflammatory and Analgesic Agents” (Molecules, 2020):
Marks after values point to notes of the source that are not given here.

Assays:
ovine COX-1 = biological target: T1, ovine COX-1 (Ovis aries, UniProt P05979); test: In vitro COX inhibitor screening assay (EIA kit, Cayman), COX-1; type: biochemical; conditions: mean of two determinations, enzyme kit, read-out: COX1 IC50
T1 construct: purchased Cayman Chemical, Ann Arbor, MI, USA 560131
T1 sequence (P05979 25-600): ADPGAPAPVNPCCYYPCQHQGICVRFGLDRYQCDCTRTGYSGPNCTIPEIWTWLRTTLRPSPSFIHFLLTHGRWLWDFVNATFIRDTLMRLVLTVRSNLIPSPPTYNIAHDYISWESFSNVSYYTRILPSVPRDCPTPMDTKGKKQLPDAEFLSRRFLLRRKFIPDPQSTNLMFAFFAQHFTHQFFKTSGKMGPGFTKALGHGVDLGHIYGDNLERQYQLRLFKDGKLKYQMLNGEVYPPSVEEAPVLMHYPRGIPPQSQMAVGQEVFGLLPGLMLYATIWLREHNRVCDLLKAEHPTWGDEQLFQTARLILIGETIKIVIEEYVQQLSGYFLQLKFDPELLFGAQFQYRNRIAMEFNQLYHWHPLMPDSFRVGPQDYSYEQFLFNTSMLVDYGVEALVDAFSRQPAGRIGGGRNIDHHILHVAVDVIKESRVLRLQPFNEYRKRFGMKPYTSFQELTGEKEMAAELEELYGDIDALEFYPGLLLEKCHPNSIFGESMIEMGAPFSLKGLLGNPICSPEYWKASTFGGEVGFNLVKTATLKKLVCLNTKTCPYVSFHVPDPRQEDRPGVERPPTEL
Description: (§1) Furthermore, the selectivity index for COX-2 (COX-1 IC50 / COX-2 IC50) was calculated for the compounds.

human recombinant COX-2 = biological target: T2, human recombinant COX-2 (Homo sapiens, UniProt P35354); test: In vitro COX inhibitor screening assay (EIA kit, Cayman), COX-2; type: biochemical; conditions: for COX2 (SI) selectivity index: COX-1 IC50 / COX-2 IC50; for IC50: COX-2, mean of two determinations, enzyme kit, read-out: COX2 IC50
T2 construct: purchased Cayman Chemical, Ann Arbor, MI, USA 560131
T2 sequence (P35354 18-604): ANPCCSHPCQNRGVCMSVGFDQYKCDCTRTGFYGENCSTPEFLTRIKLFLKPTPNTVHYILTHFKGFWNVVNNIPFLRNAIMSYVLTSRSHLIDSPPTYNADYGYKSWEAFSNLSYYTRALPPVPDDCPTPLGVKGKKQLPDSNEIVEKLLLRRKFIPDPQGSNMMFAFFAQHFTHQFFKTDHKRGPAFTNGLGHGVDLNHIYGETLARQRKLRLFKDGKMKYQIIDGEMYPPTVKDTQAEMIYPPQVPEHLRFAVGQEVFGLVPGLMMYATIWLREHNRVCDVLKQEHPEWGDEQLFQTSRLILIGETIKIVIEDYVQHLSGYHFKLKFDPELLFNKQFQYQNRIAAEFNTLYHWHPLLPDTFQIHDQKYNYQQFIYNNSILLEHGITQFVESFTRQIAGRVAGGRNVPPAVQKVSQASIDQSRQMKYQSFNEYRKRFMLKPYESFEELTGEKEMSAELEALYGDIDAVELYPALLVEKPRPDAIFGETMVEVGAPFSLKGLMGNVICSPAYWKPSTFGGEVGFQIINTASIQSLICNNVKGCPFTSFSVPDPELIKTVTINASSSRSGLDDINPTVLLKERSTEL
Description: as §1

[1] = tested on: acetic acid-induced writhing in mice; test: Acetic acid-induced writhing test (analgesic activity); type: in vivo; conditions: 10 mg/kg p.o.; for Analgesic Activity (% protection): writhing test; for Writhing Number in 20 min (Mean ± SEM): acetic acid 1 h after dosing
Description: The analgesic activity of the compounds was performed using the writhing test as described by Gawade et al.. Mice weight ranged from 25 to 30 g. Then, mice were divided into 18 different groups, each containing five animals. The animals fasted for 8 h before the experiment. Administration of the compounds (10 mg/kg, p.o.) was performed orally. Equal doses of diclofenac as the reference drug and saline as a negative control were also administrated orally. Writhing was induced one hour after compound administration by using 0.1 mL of 1% glacial acetic acid at a volume of 0.1 mL/10 g body weight. The number of writhing responses (stretching of the abdomen, extension of hind limbs, twisting of the trunk, and elongation of the body) observed was counted for 20 min. The protection percentile against acetic acid-induced writhing was calculated according to the following formula: (1) Analgesic activity (%) =n−n′/n×100* where n is the mean number of writhes of the control group, and n’ is the mean number of writhes of the tested compound group.

[2] = tested on: carrageenan-induced paw edema in rats; test: Carrageenan-induced paw edema (anti-inflammatory activity); type: in vivo; conditions: 10 mg/kg oral; for % Change in Paw Height (Mean ± SEM): n = 5
Description: Albino rats (150–180 g) were used. The rats were divided into 11 experimental groups of five rats each. One hour after oral administration of the compounds (10 mg/kg), 0.1 mL of 1% carrageenan solution was injected in the left hind paw of each animal. Rat paw volumes were measured with a digital caliber plethysmometer (UGO Basile, Varese, Italy) used to measure inflammation height at 0, 1, 2, and 3 h after carrageenan injection. The percentage increase in inflammation in the left hind paw, in comparison to the uninjected right hind paw, was determined, calculated, and expressed as the amount of inflammation. […] The anti-inflammatory activity of the selected analgesic compounds after 3 h was expressed as percentage inhibition of edema, which was calculated according to the following equation: (2) Inhibition of edema (%) =Vcont−Vtest/Vcont×100* where V cont is the edema volume in the control group, and V test is the edema volume in the group of the screened compound.

Row | SMILES | IC50 (ovine COX-1) | COX2 (SI) selectivity index (human recombinant COX-2) | IC50 (human recombinant COX-2) | melting point | Analgesic Activity (% protection) ([1]; n = 5) | % Change in Paw Height (Mean ± SEM) ([2]; 2 hr after carrageenan) | % Change in Paw Height (Mean ± SEM) ([2]; 3 hr after carrageenan) | % Change in Paw Height (Mean ± SEM) ([2]; 1 hr after carrageenan) | Anti-Inflammatory Activity (% Inhibition of Edema) ([2]; 3 hr after carrageenan) | Writhing Number in 20 min (Mean ± SEM) ([1]; n = 5) | Analgesic Activity (% protection) ([1]; n = 5, 10 mg/kg) | Analgesic Activity (% protection) ([1]; n = 5, listed as sodium diclofenac, 10 mg/kg)
1 | COc1c(C(C)=O)c(OCC(=O)Nc2cc(=O)[nH]c(=S)[nH]2)cc2occc12 [Compound 4a, 2-((5-acetyl-4-methoxybenzofuran-6-yl)oxy)-N-(6-oxo-2-thioxo-1,2,3,6-tetrahydropyrimidin-4-yl) acetamide] | 18.8 µM | 41 | 0.46 µM | 170 to 172 °C | 18 ± 1.20% | 0.40 ± 0.02 ^a % | 0.49 ± 0.02 ^a % |  |  |  |  | 
2 | COc1c2ccoc2cc2oc(C(=O)Nc3cc(=O)[nH]c(=S)[nH]3)c(C)c12 [Compound 5a, 4-methoxy-3-methyl-N-(6-oxo-2-thioxo-1,2,3,6-tetrahydropyrimidin-4-yl) benzo [1,2-b: 5,4-b`] difuran-2-carboxamide] | 18.1 µM | 48 | 0.375 µM | 245 to 247 °C | 21 ± 2.10% | 0.36 ± 0.02 ^a % | 0.46 ± 0.02 ^a % | 0.45 ± 0.03 ^a % | 28% | 54 ± 1.6 ^a,b |  | 
3 | COc1c2ccoc2cc2oc(C(Cl)=Nc3cc(Cl)nc(SC)n3)c(C)c12 [Compound 9a, N-(6-chloro-2-(methylthio)pyrimidin-4-yl)-4-methoxy-3-methylbenzo [1,2-b: 5,4-b`] difuran-2-carbimidoyl chloride] | 12 µM | 70 | 0.17 µM | > 350 °C | 30 ± 1.05% | 0.28 ± 0.02 ^a % | 0.33 ± 0.02 ^a % | 0.35 ± 0.01 ^a % | 45% | 45 ± 2.4 ^a,b |  | 
4 | COc1c2occc2c(OC)c2c(C)c(C(Cl)=Nc3cc(Cl)nc(SC)n3)oc12 [Compound 9b, N-(6-chloro-2-(methylthio)pyrimidin-4-yl)-4,8-dimethoxy-3-methylbenzo [1,2-b: 5,4-b`] difuran-2-carbimidoyl chloride] | 11.1 µM | 72 | 0.155 µM | > 350 °C | 32 ± 1.2% | 0.27 ± 0.01 ^a % | 0.31 ± 0.01 ^a % | 0.33 ± 0.02 ^a % | 48% | 44 ± 2.5 ^a,b |  | 
5 | COc1c2ccoc2cc2oc(C(=O)Nc3cc(=O)[nH]c(SCC(=O)O)n3)c(C)c12 [Compound 6a, 2-((4-(4-methoxy-3-methylbenzo [1,2-b: 5,4-b`]difuran-2-carboxamido)-6-oxo-1,6-dihydropyrimidin-2-yl)thio) acetic acid] | 17.5 µM | 51 | 0.345 µM | 278 to 280 °C | 25 ± 0.50% | 0.32 ± 0.02 ^a % | 0.41 ± 0.02 ^a % | 0.39 ± 0.01 ^a % | 35% | 50 ± 1.6 ^a,b |  | 
6 | O=C(O)Cc1ccccc1Nc1c(Cl)cccc1Cl [Diclofenac, reference compound] |  |  |  |  |  | 0.13 ± 0.02 ^a % | 0.20 ± 0.01 ^a % |  | 63% | 25 ± 1.2 ^a | 51 ± 1.15 ^a % | 51%

Now from value to compound, other results behind:

Row | IC50 (ovine COX-1) | COX2 (SI) selectivity index (human recombinant COX-2) | IC50 (human recombinant COX-2) | melting point | SMILES | Analgesic Activity (% protection) ([1]; n = 5) | % Change in Paw Height (Mean ± SEM) ([2]; 2 hr after carrageenan) | % Change in Paw Height (Mean ± SEM) ([2]; 3 hr after carrageenan) | % Change in Paw Height (Mean ± SEM) ([2]; 1 hr after carrageenan) | Anti-Inflammatory Activity (% Inhibition of Edema) ([2]; 3 hr after carrageenan) | Writhing Number in 20 min (Mean ± SEM) ([1]; n = 5) | Analgesic Activity (% protection) ([1]; n = 5, 10 mg/kg) | Analgesic Activity (% protection) ([1]; n = 5, listed as sodium diclofenac, 10 mg/kg)
7 | 7.18 µM | 80 | 0.09 µM | 327 to 329 °C | COc1c2occc2c(OC)c2c(C)c(C(=O)Nc3cc(=O)n4c(n3)SCC4=O)oc12 [Compound 7b, N-(3,5-dioxo-2,3-dihydro-5H-thiazolo[3,2-a]pyrimidin-7-yl)-4,8-dimethoxy-3-methylbenzo [1,2-b:5,4-b`]difuran-2-carboxamide] | 35 ± 1.14% | 0.25 ± 0.01 ^a % | 0.29 ± 0.01 ^a % | 0.30 ± 0.02 ^a % | 52% |  |  | 
8 | 17.9 µM | 50 | 0.36 µM | 266 to 268 °C | COc1c2occc2c(OC)c2c(C)c(C(=O)Nc3cc(=O)[nH]c(=S)[nH]3)oc12 [Compound 5b, 4,8-dimethoxy-3-methyl-N-(6-oxo-2-thioxo-1,2,3,6-tetrahydropyrimidin-4-yl) benzo [1,2-b: 5,4-b`] difuran-2-carboxamide] | 23 ± 0.70% | 0.34 ± 0.01 ^a % | 0.44 ± 0.03 ^a % | 0.42 ± 0.04 ^a % | 30% | 52 ± 1.4 ^a,b |  | 
9 | 15.5 µM | 63 | 0.245 µM | 347 to 349 °C | COc1c2occc2c(OC)c2c(C)c(C(Cl)=Nc3cc(Cl)nc(=S)[nH]3)oc12 [Compound 8b, N-(6-chloro-2-thioxo-2,3-dihydropyrimidin-4-yl)-4,8-dimethoxy-3-methylbenzo [1,2-b: 5,4-b`] difuran-2-carbimidoyl chloride] | 28 ± 0.95% | 0.29 ± 0.02 ^a % | 0.35 ± 0.02 ^a % | 0.36 ± 0.01 ^a % | 42% | 47 ± 2.2 ^a,b |  | 
10 | 17.1 µM | 55 | 0.311 µM | 293 to 295 °C | COc1c2occc2c(OC)c2c(C)c(C(=O)Nc3cc(=O)[nH]c(SCC(=O)O)n3)oc12 [Compound 6b, 2-((4-(4,8-dimethoxy-3-methylbenzo [1,2-b: 5,4-b`]difuran-2-carboxamido)-6-oxo-1,6-dihydropyrimidin-2-yl)thio) acetic acid] | 26 ± 0.80% | 0.31 ± 0.04 ^a % | 0.39 ± 0.01 ^a % | 0.38 ± 0.03 ^a % | 38% | 49 ± 1.2 ^a,b |  | 
